Assay: Breast milk and plasma amino acid levels and tolerability after oral tyrosine or tryptophan
Conditions: for amount of free amino acid in breast milk: after oral supplementation
Protocol: Many amino acids and most medications freely cross into breast milk. […] The reason is that approximately 98% of tryptophan in breast milk is contained in proteins and peptides and that 99% of tyrosine in breast milk is contained in proteins and peptides. Different supplementation doses of oral tyrosine (0 g (none), 2, 5 or 10 grams) (n=6 each) or oral tryptophan (0 g (none), 2 or 4 grams) (n=6 each) were evaluated for resulting levels in breast milk.

Structure (SMILES) | amount of free amino acid in breast milk | total tryptophan levels in breast milk (oral tryptophan 2 or 4 grams, n=6 each) | adverse effect (tryptophan 4 gram level) | total tryptophan in breast milk (tryptophan 4 gram level) | level in maternal plasma (tryptophan dose of 2 grams) | tolerability (tryptophan dose of 2 grams) | total tryptophan levels in breast milk (tryptophan dose of 2 grams) | total tyrosine levels in breast milk (oral tyrosine 2, 5 or 10 grams, n=6 each) | level in maternal plasma (tyrosine dose of 10 grams) | tolerability (tyrosine dose of 10 grams) | total tyrosine levels in breast milk (tyrosine dose of 10 grams)
N[C@@H](Cc1c[nH]c2ccccc12)C(=O)O [tryptophan, L-tryptophan] | did increase | no change | nausea | did not increase | significantly increased | extremely well tolerated | did not have any effects |  |  |  | 
N[C@@H](Cc1ccc(O)cc1)C(=O)O [tyrosine, L-tyrosine] | did increase |  |  |  |  |  |  | no change | significantly increased | extremely well tolerated | did not significantly impact

Reference: patent publication US20230285489A1, “METHODS, COMPOSITIONS, AND KITS ADDRESSING DEPRESSED MOOD” (Centre for Addiction and Mental Health, priority 2014, published 2023)
